Read-outs that look alike come from different tables or passages of the source.
Experiments:
[1] = Dasatinib pharmacokinetic studies in plasma; type: in vivo, patients; conditions: for Cmax: Cmax Geomean (%CV)
[2] = tested on: NSCLC; conditions: dasatinib monotherapy, phase II; cited from earlier work
[3] = tested on: SFK PY-416 (P-SFK); assay: P-SFK peripheral blood mononuclear cell; type: in vivo, patients; conditions: for P-SFK levels in PBMCs compared to same day pre-dasatinib dosing levels: day 15 (with cetuximab)

In the case of Cc1nc(Nc2ncc(C(=O)Nc3c(C)cccc3Cl)s2)cc(N2CCN(CCO)CC2)n1 [dasatinib, N-(2-chloro-6-methyl-phenyl)-2-(6-(4-(2-hydroxyethyl)-piperazin-1-yl)-2-methylpyrimidin-4-ylamino)thiazole-5-carboxamide], the “T-HALF Mean (SD)” value ([1]; 100 mg oral, Day 0 (alone), N=3) is reported as 6.8 (0.1) h, the “T-HALF Mean (SD)” value ([1]; 100 mg oral, Day 15 (with cetuximab), N=3) is reported as 6.4 (0.1) h and the “T-HALF Mean (SD)” value ([1]; 150 mg oral, Day 0 (alone), N=18) is reported as 5.2 (1.0) h. The “T-HALF Mean (SD)” value ([1]; 200 mg oral, Day 0 (alone), N=3) was 5.1 (0.6) h, the half-life ([1]; human, plasma, po) was 5 to 6 h and the Cmax ([1]; human, plasma, po, 100 mg, 100 mg oral, Day 0 (alone), N=3) was 101 ng/mL. It also gave a Tmax ([1]; human, plasma, po, 100 mg, Tmax Med (Min, Max), 100 mg oral, Day 0 (alone), N=3) of 1 h, a Cmax ([1]; human, plasma, po, 150 mg, 150 mg oral, Day 0 (alone), N=18) of 144 ng/mL and a Tmax ([1]; human, plasma, po, 150 mg, Tmax Med (Min, Max), 150 mg oral, Day 0 (alone), N=18) of 1.5 h. The Cmax ([1]; human, plasma, po, 200 mg, 200 mg oral, Day 0 (alone), N=3) was 415 ng/mL, the Tmax ([1]; human, plasma, po, 200 mg, Tmax Med (Min, Max), 200 mg oral, Day 0 (alone), N=3) was 1 h and the Tmax ([1]; human, plasma, po, Tmax, text summary over dose levels) was 1 to 2 h. The “PK parameters (AUC and T-HALF) given alone (day 0) versus in combination with cetuximab (day 15)” value ([1]; in vivo) was “comparable”, the “patients with either a partial response or SD” value [2] was 43% and the “P-SFK levels in PBMCs compared to baseline” value ([3]; day 0, 4 hours following dasatinib dosing) was “tended to be reduced”. The “P-SFK levels in PBMCs compared to baseline” value ([3]; day 0, 8 hours following dasatinib dosing) was “significantly reduced”, the “P-SFK levels in PBMCs compared to baseline” value ([3]; day 0, 24 hours following dasatinib dosing) was “did not differ from baseline levels” and the “P-SFK levels in PBMCs compared to same day pre-dasatinib dosing levels” value ([3]; 8 hours, P=0.03) was “significantly decreased”. For the same compound, the “P-SFK levels in PBMCs compared to same day pre-dasatinib dosing levels” value ([3]; 24 hours, P=0.18) was “did not differ from pre-dasatinib dosing levels”, the “DLT (patients)” value (dose level 1, dasatinib 100 mg once daily plus weekly cetuximab, 3 (3) patients (evaluable)) was “None” and the “DLT (patients)” value (dose level 2, dasatinib 150 mg once daily plus weekly cetuximab, 19 (14) patients (evaluable)) was 1. The “DLT (patients)” value (dose level 2, dasatinib 150 mg once daily plus weekly cetuximab, 19 (14) patients (evaluable), listed as Dasatinib) was 1 (Headache) and the “DLT (patients)” value (dose level 3, dasatinib 200 mg once daily plus weekly cetuximab, 3 (2) patients (evaluable)) was 2.

Source: publication PMC3402509 (Investigational New Drugs, 2011)
